The source of these data is PubChem BioAssay (NCI).

Where “and” joins values, the source holds several entries; their conditions need not be identical. Equal values may be shown once.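 Dose response: 5 concentrations. Exposure: 48 h. Format: 96-well plates. Endpoint: linear interpolation; highest concentration if not reached. GI50 marks 50% less growth. TGI: total growth inhibition.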

Holding throughout (test): NCI tumour cell line growth inhibition, 48 h
The test system of assay [1] is IGROV1 ovarian.
Assay [2] has as its system HL-60(TB) leukemia.
The subject of assay [3] is EKVX NSCLC.
Assay [4] relates to LOX IMVI melanoma.
In assay [5] the test system is NCI/ADR-RES ovarian.
The subject of assay [6] is UACC-257 melanoma.
Assay [7] relates to BT-549 breast.

Consider `CN(C(=O)Cc1ccc(Cl)c(Cl)c1)[C@@H]1CCCC[C@H]1[N+]1(C)CC=CC1`, for which the TGI in assay [1], in assay [2], in assay [3], in assay [4], in assay [5] and in assay [6] was over 100 µM throughout. The compound further yielded a TGI in assay [7] of over 100 µM.
Take `CN(C)CCCCN1c2ccccc2Sc2cc(N=[N+]=[N-])ccc21`: the TGI in assay [1] was 3.43 µM; in assay [2], 3.94 µM; in assay [3], 15.5 µM; in assay [4] it was 3.06 µM; in assay [5], 4.07 µM; in assay [6] it was 3.25 µM. The compound also displayed a TGI in assay [7] of 22.9 µM.
With `O=c1[nH]nc(Cc2ccccc2)n1/N=C/c1ccccc1Cl`, the TGI in assay [1], in assay [3], in assay [4], in assay [5], in assay [6] and in assay [7] was over 100 µM throughout.
As for `O=C(CCc1ccc(O)cc1)NCCc1cccc(OCc2ccccc2)c1`, the TGI in assay [1] was over 100 µM; in assay [2], 50 µM; in assay [3], over 100 µM; in assay [4], 30.4 µM; in assay [5] it was over 100 µM; in assay [6], 39.3 µM. The compound further returned a TGI in assay [7] of 45.6 µM.
Consider `CNn1c(C)n[nH]c1=O`, for which the TGI in assay [1], in assay [2], in assay [3], in assay [4], in assay [5] and in assay [6] was over 100 µM each time. The TGI in assay [7] was over 100 µM.
On to `COc1ccc(C2=C(N)c3c(OC)cccc3C2=O)cc1`, for which the TGI in assay [1], in assay [2], in assay [3], in assay [4], in assay [5] and in assay [7] was over 100 µM each time.
Take `NC1=NN(c2ccccc2)C2(O)c3ccncc3C3=NN(c4ccccc4)C(=O)C132` (stereo not drawn): the TGI in assay [1], in assay [2], in assay [3], in assay [4], in assay [5] and in assay [6] was over 100 µM each time. The TGI in assay [7] is over 100 µM.
Consider `Cc1occc1C(=S)Nc1ccc(Cl)c(/C=N/OC(C)C)c1`, for which the TGI in assay [1] was over 57.2 µM; in assay [2], 69.8 µM; in assay [3], 59 µM; in assay [4] it was 31.1 µM; in assay [5], over 58 µM; in assay [6], 47.6 µM. For the same compound, the TGI in assay [7] was found to be 36.5 µM.
For `O=C1c2ccccc2C2=Nc3ccncc3CN12`, the TGI in assay [1], in assay [2], in assay [3], in assay [5], in assay [6] and in assay [7] was over 100 µM throughout.
On to `COc1ccc(C(c2c[nH]c3ccc(Br)cc23)c2c[nH]c3ccc(Br)cc23)cc1`, for which the TGI in assay [1] stood at 0.803 µM; in assay [2], 0.346 µM; in assay [3] it was 1.49 µM; in assay [4], 0.314 µM; in assay [5], 4.34 µM; in assay [6], 0.947 µM. The compound also registered a TGI in assay [7] of 3.16 µM.
In the case of `CCOC(=O)c1c(-c2ccc(O)c(OC)c2)c(C#N)c(=S)n(C2OC(COC(C)=O)C(OC(C)=O)C(OC(C)=O)C2OC(C)=O)c1-c1ccccc1` (stereo not drawn), the GI50 in assay [1] was 18 µM and 79.7 µM. The TGI was 55.5 µM and > 100 µM in assay [1]; over 100 µM in assay [2]; over 100 µM in assay [3]; over 100 µM in assay [4]; over 100 µM in assay [5]; over 100 µM in assay [6]. Also, the TGI in assay [7] is over 100 µM.
As for `N#Cc1c(Cl)/c(=C/O)c(=O)n2c1nc1ccccc12`, the TGI in assay [1] was over 100 µM; in assay [2], 89.6 µM; in assay [3] it was over 100 µM; in assay [4], over 100 µM; in assay [5], over 100 µM; in assay [6], over 100 µM. The TGI in assay [7] was over 100 µM.
As for `O=C(O)c1ccccc1C(=O)Nn1cnnc1`, the TGI in assay [1], in assay [3], in assay [4], in assay [5], in assay [6] and in assay [7] was over 100 µM throughout.
For the compound `COC1=C(N2CC2)C(=O)c2nc3n(c2C1=O)CCC3`, the TGI is 3.15 µM in assay [1]; 0.595 µM in assay [2]; 2.15 µM in assay [4]; 3.53 µM in assay [5]; 2.39 µM in assay [7].
As for `COc1ccc2c(c1)CCc1[nH]c3ccccc3c1CCCC2`, the TGI in assay [1], in assay [2], in assay [4], in assay [5], in assay [6] and in assay [7] was over 10 µM each time.
As for `COc1cc(C2C3=C(COC3=O)Oc3cc4c(cc32)OCO4)ccc1OC(C)=O` (stereo not drawn), the TGI in assay [2] is 0.907 µM; in assay [3] it was over 100 µM; in assay [4], over 100 µM; in assay [5], over 100 µM; in assay [6], over 100 µM; in assay [7], 12.6 µM.
Regarding `COc1ccc2cc(/C=N\NC(=O)Nc3cccc4ccccc34)ccc2c1`, the TGI in assay [1], in assay [3], in assay [4], in assay [5], in assay [6] and in assay [7] was over 100 µM in each case.
For `Cc1cccc(C)c1NC(=S)NC=C(C(N)=O)C(N)=O`, the TGI in assay [1], in assay [3], in assay [4], in assay [5], in assay [6] and in assay [7] was over 100 µM each time.
With `c1ccc(Nc2nnc(Cn3ccc4ccccc43)s2)cc1`, the TGI in assay [1], in assay [3], in assay [4], in assay [5], in assay [6] and in assay [7] was over 100 µM each time.
